{
  "source": "paper PMC10385371",
  "about": "“Discovery of Novel Coumarin-Schiff Base Hybrids as Potential Acetylcholinesterase Inhibitors: Design, Synthesis, Enzyme Inhibition, and Computational Studies” (Pharmaceuticals, 2023)",
  "key": {"[1]": {"target": "T1, Acetylcholinesterase (Type VI-S, from Electrophorus electricus) (Electrophorus electricus, UniProt O42275)", "T1 construct": "purchased Sigma Aldrich Type VI-S (catalogue number not given)", "T1 sequence (O42275 24-633)": "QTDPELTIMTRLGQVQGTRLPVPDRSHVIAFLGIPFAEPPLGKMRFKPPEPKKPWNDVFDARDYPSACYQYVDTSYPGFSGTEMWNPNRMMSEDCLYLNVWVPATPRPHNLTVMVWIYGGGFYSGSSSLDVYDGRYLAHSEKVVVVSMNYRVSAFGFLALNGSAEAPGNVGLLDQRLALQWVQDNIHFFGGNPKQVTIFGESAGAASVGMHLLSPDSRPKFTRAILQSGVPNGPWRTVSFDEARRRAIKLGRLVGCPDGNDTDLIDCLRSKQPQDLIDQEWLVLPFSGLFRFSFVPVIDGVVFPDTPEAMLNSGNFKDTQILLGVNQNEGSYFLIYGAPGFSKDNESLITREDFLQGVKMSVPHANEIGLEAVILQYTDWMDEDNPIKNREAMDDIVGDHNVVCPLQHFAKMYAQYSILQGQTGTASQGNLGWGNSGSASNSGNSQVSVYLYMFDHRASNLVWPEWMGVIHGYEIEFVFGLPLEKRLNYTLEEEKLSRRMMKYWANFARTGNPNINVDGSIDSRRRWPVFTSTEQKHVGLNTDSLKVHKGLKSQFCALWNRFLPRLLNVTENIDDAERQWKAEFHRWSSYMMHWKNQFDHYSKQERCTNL", "experiment": "biochemical", "type": "biochemical", "conditions": "for IC50: read-out: IC50 against AChE; for potency relative to galantamine (positive control): ratio of AChE IC50 values", "description": "The procedure described by Ellman, slightly modified, was performed to assess the AChE inhibitory activity of synthesized compounds, according to reported procedures in the literature. Detailed protocol is provided in supplementary materials. […]\nIn vitro inhibition study on AChE\nThe assay for AChE inhibitory activity was done based on a modified protocol. Acetylcholinesterase (Type VI-S, from Electrophorus electricus), 5,5′-dithiobis-2-nitrobenzoic acid (Ellman's reagent, DTNB) and acetylthiocholine chloride (ATCI) were purchased from Sigma Aldrich. Enzyme solutions were prepared to give 0.28 units/mL aliquots. Stock solutions were prepared by dissolving 1 mg of tested compounds in 1 mL of DMSO and diluted to a final concentration of 1000, 800, 600, 400, 200, 100, and 50 µg/mL. The assay buffer solution A (pH = 8.0) was prepared by taking 93.2 mL of solution (6 g of sodium dihydrogen phosphate was dissolved in 500 mL of deionized water) and mixed with 6.8 mL of solution (7 g of sodium hydrogen phosphate was dissolved in 500 mL of deionized water) and adjusted. 57.7 mL of sodium dihydrogen phosphate and 42.3 mL of sodium hydrogen phosphate were mixed and adjusted to prepare the buffer B (pH = 7.0). […]\nfresh solutions of 0.01 M DTNB (0.396 g of DTNB and 15 mg NaHCO3 were dissolved in 100 mL of the buffer B) in a dark place, and 0.075 M ATCI (0.2048 g of ATCI was dissolved in 10 mL of deionized water), were prepared. In 96-well plates, 20 μL of the test compounds, 10 μL of DTNB, 15 μL of the enzyme (AChE) and 140 μL of the buffer solution A, were added in dark conditions and incubated for 15 min, followed by the addition of ATCI (10 μL) and incubated again for the same period. The activity was measured by reading the absorbance of the solution at 412 nm. Blanks containing all the components except the enzyme were carried out.\nIC50 values were calculated as the concentration of a compound that produces 50% enzyme activity inhibition using the GraphPad Prism 8 programme package. Results are expressed as the mean ± SD of at least three different experiments performed in triplicate.\nPercentage inhibition was calculated by this formula:\n% ሺInhibitionሻ = B−AB X 100\n• A= absorbance of the enzyme with the test sample;\n• B = absorbance of the enzyme without test sample.\n• Each experiment was repeated thrice."}, "AChE": {"system": "AChE", "conditions": "read-out: IC50 against AChE; cited from earlier work"}, "[2]": {"target": "human monoamine oxidase hMAO-B", "conditions": "cited from earlier work"}, "[3]": {"target": "human monoamine oxidase hMAO-A", "conditions": "cited from earlier work"}},
  "note": "Values joined by “and” are separate entries in the source; they are usually repeats but may differ in a detail not shown here. Equal entries are not always repeated.",
  "data": [
    {"smiles": "COc1ccc2c(COc3ccc(/C=N/c4ccccc4)cc3)cc(=O)oc2c1", "note": "[13a, (E)-7-Methoxy-4-((4-((phenylimino)methyl)phenoxy)methyl)-2H-chromen-2-one]", "values": [
      {"measurement": "IC50", "setting": "[1]", "result": "440 ± 16", "unit": "µM"}
    ]},
    {"smiles": "COc1ccc(/N=C/c2ccc(OCc3cc(=O)oc4cc(OC)ccc34)cc2)cc1", "note": "[13b, (E)-7-Methoxy-4-((4-(((4-methoxyphenyl)imino)methyl)phenoxy)methyl)-2H-chromen-2-one]", "values": [
      {"measurement": "IC50", "setting": "[1]", "result": "466 ± 7", "unit": "µM"}
    ]},
    {"smiles": "COc1ccc2c(COc3ccc(/C=N/c4ccc(Cl)cc4)cc3)cc(=O)oc2c1", "note": "[13c, (E)-4-((4-(((4-Chlorophenyl)imino)methyl)phenoxy)methyl)-7-methoxy-2H-chromen-2-one]", "values": [
      {"measurement": "potency relative to galantamine (positive control)", "setting": "[1]", "result": "5 fold and ~ 5 fold"},
      {"measurement": "IC50", "setting": "[1]", "result": "232 ± 11", "unit": "µM"}
    ]},
    {"smiles": "COc1ccc2c(COc3ccc(/C=N/c4ccc(Cl)cc4)cc3OC)cc(=O)oc2c1", "note": "[13d, (E)-4-((4-(((4-Chlorophenyl)imino)methyl)-2-methoxyphenoxy)methyl)-7-methoxy-2H-chromen-2-one]", "values": [
      {"measurement": "potency relative to galantamine (positive control)", "setting": "[1]", "result": "5 fold and ~ 5 fold"}
    ]},
    {"smiles": "COc1ccc2c(COc3ccc(/C=N/c4ccccc4)cc3OC)cc(=O)oc2c1", "note": "[13e, (E)-7-Methoxy-4-((2-methoxy-4-((phenylimino)methyl)phenoxy)methyl)-2H-chromen-2-one]", "values": [
      {"measurement": "IC50", "setting": "[1]", "result": "297 ± 6", "unit": "µM"}
    ]},
    {"smiles": "COc1ccc(/N=C/c2ccc(OCc3cc(=O)oc4cc(OC)ccc34)c(OC)c2)cc1", "note": "[13f, (E)-7-Methoxy-4-((2-methoxy-4-(((4-methoxyphenyl)imino)methyl)phenoxy)methyl)-2H-chromen-2-one]", "values": [
      {"measurement": "IC50", "setting": "[1]", "result": "365 ± 25", "unit": "µM"}
    ]},
    {"smiles": "COc1ccc(/N=C/c2cccc(OCc3cc(=O)oc4cc(OC)ccc34)c2)cc1", "note": "[13g, (E)-7-Methoxy-4-((3-(((4-methoxyphenyl)imino)methyl)phenoxy)methyl)-2H-chromen-2-one]", "values": [
      {"measurement": "IC50", "setting": "[1]", "result": "1090 ± 58", "unit": "µM"}
    ]},
    {"smiles": "COc1ccc2c(COc3cc(/C=N/c4ccc(Cl)cc4)ccc3OC)cc(=O)oc2c1", "note": "[13i, (E)-4-((5-(((4-Chlorophenyl)imino)methyl)-2-methoxyphenoxy)methyl)-7-methoxy-2H-chromen-2-one]", "values": [
      {"measurement": "IC50", "setting": "[1]", "result": "712 ± 44", "unit": "µM"}
    ]},
    {"smiles": "COc1ccc2c(COc3cccc(/C=N/c4ccc(Cl)cc4)c3)cc(=O)oc2c1", "note": "[13j, (E)-4-((3-(((4-Chlorophenyl)imino)methyl)phenoxy)methyl)-7-methoxy-2H-chromen-2-one]", "values": [
      {"measurement": "IC50", "setting": "[1]", "result": "651 ± 3", "unit": "µM"}
    ]},
    {"smiles": "Cc1c(O)ccc2c(CC(=O)NCCN3CCN(Cc4ccccc4)CC3)cc(=O)oc12", "note": "[compound 3]", "values": [
      {"measurement": "IC50", "setting": "AChE", "result": 0.04, "unit": "µM"}
    ]},
    {"smiles": "O=c1oc2ccccc2c(O)c1/N=C/c1ccc(O)c(O)c1O", "note": "[compound 4]", "values": [
      {"measurement": "IC50", "setting": "[2]", "result": 0.711, "unit": "µM"},
      {"measurement": "IC50", "setting": "[3]", "result": 0.673, "unit": "µM"}
    ]},
    {"smiles": "O=C(N/N=C\\c1c2ccccc2cc2ccccc12)c1ccccc1O", "note": "[compound 5]", "values": [
      {"measurement": "IC50", "setting": "AChE", "result": 4.12, "unit": "µM"}
    ]}
  ]
}
